According to ChEMBL document CHEMBL1909046, “DrugMatrix in vitro pharmacology data”:

Legend:
[1] = molecular target: Mitogen-activated protein kinase 3 (Homo sapiens, UniProt P27361); test: DRUGMATRIX: Protein Serine/Threonine Kinase, ERK1 enzyme inhibition (substrate: Myelin Basic Protein); design: species or system Escherichia coli; conditions: Not Active = under 50% inhibition at 10 µM
Vasopressin V1a receptor = Vasopressin V1a receptor (Homo sapiens, UniProt P37288); assay type: cell membranes, Membrane; conditions: hek293; note: in other assays of this panel Not Active means under 50% inhibition at 10 µM
[2] = molecular target: Epidermal growth factor receptor (Homo sapiens, UniProt P00533); test: DRUGMATRIX: Protein Tyrosine Kinase, EGF Receptor enzyme inhibition (substrate: Poly(Glu:Tyr)); assay type: cell-based, Insect cells; conditions: insect cells; Not Active = under 50% inhibition at 10 µM
[3] = molecular target: Voltage-gated inwardly rectifying potassium channel KCNH2 (Homo sapiens, UniProt Q12809); conditions: hek293; note: in other assays of this panel Not Active means under 50% inhibition at 10 µM
[4] = DRUGMATRIX: Potassium Channel [KATP] radioligand binding (ligand: [3H] Glyburide); assay type: cell membranes, Membrane; conditions: hit-t15, Not Active = under 50% inhibition at 10 µM
[5] = molecular target: Sodium-dependent noradrenaline transporter (Homo sapiens, UniProt P23975); test: DRUGMATRIX: Norepinephrine Transporter radioligand binding (ligand: [125I] RTI-55); assay type: cell membranes, MDCK, Membrane; conditions: mdck; Not Active = under 50% inhibition at 10 µM
Sodium-dependent noradrenaline transporter, sequence (P23975 whole entry): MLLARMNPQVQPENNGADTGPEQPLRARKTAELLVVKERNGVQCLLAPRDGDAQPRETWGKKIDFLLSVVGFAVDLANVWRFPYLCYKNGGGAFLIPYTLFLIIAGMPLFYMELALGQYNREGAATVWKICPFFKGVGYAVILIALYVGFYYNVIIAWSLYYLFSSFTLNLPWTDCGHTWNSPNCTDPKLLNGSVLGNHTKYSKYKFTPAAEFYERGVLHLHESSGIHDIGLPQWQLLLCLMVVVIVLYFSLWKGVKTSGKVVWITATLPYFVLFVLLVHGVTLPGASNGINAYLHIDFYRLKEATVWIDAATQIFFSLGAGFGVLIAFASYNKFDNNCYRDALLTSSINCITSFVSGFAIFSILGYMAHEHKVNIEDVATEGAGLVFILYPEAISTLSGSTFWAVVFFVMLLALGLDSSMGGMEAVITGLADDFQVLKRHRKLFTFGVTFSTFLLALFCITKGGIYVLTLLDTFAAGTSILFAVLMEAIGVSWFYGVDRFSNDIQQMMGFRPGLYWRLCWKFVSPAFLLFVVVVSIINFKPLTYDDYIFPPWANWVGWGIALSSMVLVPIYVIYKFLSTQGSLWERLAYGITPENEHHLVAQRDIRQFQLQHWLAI

Vasopressin V1a receptor, sequence (P37288 whole entry): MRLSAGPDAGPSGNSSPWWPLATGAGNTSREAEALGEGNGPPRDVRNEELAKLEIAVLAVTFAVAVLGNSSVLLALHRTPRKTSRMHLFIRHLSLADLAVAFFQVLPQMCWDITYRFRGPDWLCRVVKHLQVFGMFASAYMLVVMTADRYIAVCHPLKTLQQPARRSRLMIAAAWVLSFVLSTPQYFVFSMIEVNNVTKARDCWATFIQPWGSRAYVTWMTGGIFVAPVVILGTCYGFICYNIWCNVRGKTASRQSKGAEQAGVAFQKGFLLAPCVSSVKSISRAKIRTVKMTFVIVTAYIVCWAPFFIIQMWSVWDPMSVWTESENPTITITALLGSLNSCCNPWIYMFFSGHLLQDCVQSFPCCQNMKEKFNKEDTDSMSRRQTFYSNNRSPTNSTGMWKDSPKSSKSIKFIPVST
Mitogen-activated protein kinase 3, sequence (P27361 whole entry): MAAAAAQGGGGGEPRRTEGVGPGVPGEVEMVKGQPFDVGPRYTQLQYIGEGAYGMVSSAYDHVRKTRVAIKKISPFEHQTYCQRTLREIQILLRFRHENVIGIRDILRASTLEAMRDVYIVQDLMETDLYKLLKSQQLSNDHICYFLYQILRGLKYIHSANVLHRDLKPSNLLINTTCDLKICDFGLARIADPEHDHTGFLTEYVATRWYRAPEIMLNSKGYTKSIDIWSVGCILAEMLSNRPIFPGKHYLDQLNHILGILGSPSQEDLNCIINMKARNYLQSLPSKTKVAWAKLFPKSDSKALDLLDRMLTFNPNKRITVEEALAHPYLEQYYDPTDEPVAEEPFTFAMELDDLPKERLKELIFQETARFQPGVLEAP
Voltage-gated inwardly rectifying potassium channel KCNH2, sequence (Q12809 whole entry): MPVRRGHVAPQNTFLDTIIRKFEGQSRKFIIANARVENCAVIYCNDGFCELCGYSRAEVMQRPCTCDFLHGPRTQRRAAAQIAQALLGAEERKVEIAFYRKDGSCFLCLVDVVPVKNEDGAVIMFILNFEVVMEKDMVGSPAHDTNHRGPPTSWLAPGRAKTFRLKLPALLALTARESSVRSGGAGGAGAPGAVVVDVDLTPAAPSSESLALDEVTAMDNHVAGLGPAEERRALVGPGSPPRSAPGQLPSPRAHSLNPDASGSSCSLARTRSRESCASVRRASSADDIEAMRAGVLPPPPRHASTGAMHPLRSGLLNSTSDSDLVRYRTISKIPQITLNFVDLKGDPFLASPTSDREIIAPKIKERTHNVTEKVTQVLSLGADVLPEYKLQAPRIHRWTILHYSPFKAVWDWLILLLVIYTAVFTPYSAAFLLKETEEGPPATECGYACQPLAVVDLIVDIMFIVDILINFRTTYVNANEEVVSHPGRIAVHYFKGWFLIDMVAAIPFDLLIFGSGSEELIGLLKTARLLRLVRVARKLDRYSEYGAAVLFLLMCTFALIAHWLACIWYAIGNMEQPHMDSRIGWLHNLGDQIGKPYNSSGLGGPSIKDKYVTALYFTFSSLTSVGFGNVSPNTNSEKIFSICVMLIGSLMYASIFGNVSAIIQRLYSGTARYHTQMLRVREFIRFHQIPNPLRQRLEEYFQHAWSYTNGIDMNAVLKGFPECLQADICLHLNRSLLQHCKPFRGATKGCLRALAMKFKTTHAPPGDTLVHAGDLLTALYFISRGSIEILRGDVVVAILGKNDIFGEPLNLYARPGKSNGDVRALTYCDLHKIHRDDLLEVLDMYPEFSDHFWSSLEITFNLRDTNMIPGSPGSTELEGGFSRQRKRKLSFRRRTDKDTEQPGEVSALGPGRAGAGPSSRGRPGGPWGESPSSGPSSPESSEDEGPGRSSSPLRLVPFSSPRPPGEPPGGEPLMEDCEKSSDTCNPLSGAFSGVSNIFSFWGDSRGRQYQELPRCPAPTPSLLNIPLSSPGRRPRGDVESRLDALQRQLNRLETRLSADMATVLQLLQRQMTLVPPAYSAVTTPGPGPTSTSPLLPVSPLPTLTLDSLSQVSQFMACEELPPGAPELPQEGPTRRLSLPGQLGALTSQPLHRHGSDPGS
Epidermal growth factor receptor, sequence (P00533 whole entry): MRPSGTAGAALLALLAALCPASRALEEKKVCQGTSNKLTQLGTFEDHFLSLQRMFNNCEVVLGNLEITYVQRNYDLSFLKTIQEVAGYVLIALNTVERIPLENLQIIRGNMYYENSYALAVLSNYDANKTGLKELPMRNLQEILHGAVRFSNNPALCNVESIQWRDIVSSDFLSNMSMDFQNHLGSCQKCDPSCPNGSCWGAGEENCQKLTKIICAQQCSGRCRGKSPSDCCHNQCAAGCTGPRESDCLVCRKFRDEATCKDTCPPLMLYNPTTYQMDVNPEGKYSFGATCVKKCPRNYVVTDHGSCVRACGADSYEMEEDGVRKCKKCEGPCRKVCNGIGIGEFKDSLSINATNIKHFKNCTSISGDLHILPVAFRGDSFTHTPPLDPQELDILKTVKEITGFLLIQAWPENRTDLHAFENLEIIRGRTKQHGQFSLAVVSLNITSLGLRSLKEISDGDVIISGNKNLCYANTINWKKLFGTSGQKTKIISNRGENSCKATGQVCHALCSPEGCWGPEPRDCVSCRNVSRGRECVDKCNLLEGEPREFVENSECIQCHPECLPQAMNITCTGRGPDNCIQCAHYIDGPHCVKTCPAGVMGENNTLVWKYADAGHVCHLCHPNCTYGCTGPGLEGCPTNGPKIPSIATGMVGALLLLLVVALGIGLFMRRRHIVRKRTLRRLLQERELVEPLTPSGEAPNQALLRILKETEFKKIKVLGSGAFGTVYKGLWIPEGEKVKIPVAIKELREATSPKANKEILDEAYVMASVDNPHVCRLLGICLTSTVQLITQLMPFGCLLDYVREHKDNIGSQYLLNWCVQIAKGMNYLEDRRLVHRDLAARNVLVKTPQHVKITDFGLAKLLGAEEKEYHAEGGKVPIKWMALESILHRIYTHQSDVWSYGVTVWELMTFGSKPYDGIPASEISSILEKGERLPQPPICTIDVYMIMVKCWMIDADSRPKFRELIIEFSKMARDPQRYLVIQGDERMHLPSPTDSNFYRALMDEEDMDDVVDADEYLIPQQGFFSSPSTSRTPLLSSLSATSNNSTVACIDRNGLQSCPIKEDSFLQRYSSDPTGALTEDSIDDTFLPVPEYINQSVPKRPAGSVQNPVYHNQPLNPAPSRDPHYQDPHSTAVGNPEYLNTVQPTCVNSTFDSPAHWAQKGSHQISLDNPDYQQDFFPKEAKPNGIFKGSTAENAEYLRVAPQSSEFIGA

Structure (SMILES) | IC50 [1] | IC50 (Vasopressin V1a receptor) | IC50 [2] | IC50 [3] | Ki [3] | IC50 [4] | Ki [4] | IC50 [5] | IC50 ([4]; read-out: IC50) [nM] | Ki ([4]; read-out: Ki) [nM]
O=C(O)CC(O)(CC(=O)O)C(=O)O [CITRIC ACID] | Not Active | Not Active | Not Active | Not Active | Not Active | Not Active | Not Active | Not Active |  | 
CC(C)NCC(O)c1ccccc1Cl (stereo not given) [CLORPRENALINE] | Not Active | Not Active | Not Active | Not Active | Not Active | Not Active | Not Active | Not Active |  | 
CN1CCN(C(c2ccccc2)c2ccccc2)CC1 [CYCLIZINE] | Not Active | Not Active | Not Active | Not Active | Not Active | Not Active | Not Active | Not Active |  | 
CN1C[C@@H]2C[C@H]1CN2c1cc2c(cc1F)c(=O)c(C(=O)O)cn2C1CC1 [DANOFLOXACIN] | Not Active | Not Active | Not Active | Not Active | Not Active | Not Active | Not Active | Not Active |  | 
COc1cccc2c1C(=O)c1c(O)c3c(c(O)c1C2=O)C[C@@](O)(C(C)=O)C[C@@H]3O[C@H]1C[C@H](N)[C@H](O)[C@H](C)O1 [DAUNORUBICIN] | Not Active | Not Active | Not Active | Not Active | Not Active | Not Active | Not Active | Not Active |  | 
O=C(O)c1cc(-c2ccc(F)cc2F)ccc1O [DIFLUNISAL] | Not Active | Not Active | Not Active | Not Active | Not Active | Not Active | Not Active | Not Active |  | 
C[S+](C)[O-] [DIMETHYL SULFOXIDE] | Not Active | Not Active | Not Active | Not Active | Not Active | Not Active | Not Active | Not Active |  | 
CC1=NN(c2ccccc2)C(=O)C1 [EDARAVONE] | Not Active | Not Active | Not Active | Not Active | Not Active | Not Active | Not Active | Not Active |  | 
CC(C)C[C@H]1C(=O)N2CCC[C@H]2[C@]2(O)O[C@](NC(=O)[C@@H]3C=C4c5cccc6[nH]cc(c56)C[C@H]4N(C)C3)(C(C)C)C(=O)N12 [ERGOCRYPTINE] | Not Active | Not Active | Not Active | Not Active | Not Active | Not Active | Not Active | Not Active |  | 
C[C@]12CC[C@@H]3c4ccc(O)cc4CC[C@H]3[C@@H]1C[C@@H](O)[C@@H]2O [ESTRIOL] | Not Active | Not Active | Not Active | Not Active | Not Active | Not Active | Not Active | Not Active |  | 
CC(O)(P(=O)(O)O)P(=O)(O)O [ETIDRONIC ACID] | Not Active | Not Active | Not Active | Not Active | Not Active | Not Active | Not Active | Not Active |  | 
CN1CCN(c2c(F)cc3c(=O)c(C(=O)O)cn(CCF)c3c2F)CC1 [FLEROXACIN] | Not Active | Not Active | Not Active | Not Active | Not Active | Not Active | Not Active | Not Active |  | 
O=c1[nH]c(=O)n([C@H]2C[C@H](O)[C@@H](CO)O2)cc1F [FLOXURIDINE] | Not Active | Not Active | Not Active | Not Active | Not Active | Not Active | Not Active | Not Active |  | 
COC(=O)Nc1nc2cc(C(=O)c3ccc(F)cc3)ccc2[nH]1 [FLUBENDAZOLE] | Not Active | Not Active | Not Active | Not Active | Not Active | Not Active | Not Active | Not Active |  | 
CC(=O)OCC(=O)[C@@]1(O)CC[C@H]2[C@@H]3CCC4=CC(=O)CC[C@]4(C)[C@@]3(F)[C@@H](O)C[C@@]21C [FLUDROCORTISONE ACETATE] | Not Active | Not Active | Not Active | Not Active | Not Active | Not Active | Not Active | Not Active |  | 
CCOC(=O)c1ncn2c1CN(C)C(=O)c1cc(F)ccc1-2 [FLUMAZENIL] | Not Active | Not Active | Not Active | Not Active | Not Active | Not Active | Not Active | Not Active |  | 
CC(=O)OCC(=O)[C@@]12OC(C)(C)O[C@@H]1C[C@H]1[C@@H]3C[C@H](F)C4=CC(=O)C=C[C@]4(C)[C@@]3(F)[C@@H](O)C[C@@]12C [FLUOCINONIDE] | Not Active | Not Active | Not Active | Not Active | Not Active | Not Active | Not Active | Not Active |  | 
O=C(O)P(=O)(O)O [FOSCARNET] | Not Active | Not Active | Not Active | Not Active | Not Active | Not Active | Not Active | Not Active |  | 
Cc1ccc(C)c(OCCCC(C)(C)C(=O)O)c1 [GEMFIBROZIL] | Not Active | Not Active | Not Active | Not Active | Not Active | Not Active | Not Active | Not Active |  | 
CCC1=C(C)CN(C(=O)NCCc2ccc(S(=O)(=O)NC(=O)N[C@H]3CC[C@H](C)CC3)cc2)C1=O [GLIMEPIRIDE] | Not Active | Not Active | Not Active | Not Active | Not Active |  |  | Not Active | 100 | 11
Nc1cc(-c2ccncc2)c[nH]c1=O [INAMRINONE] | Not Active | Not Active | Not Active | Not Active | Not Active | Not Active | Not Active | Not Active |  | 
CCCCC1=NC2(CCCC2)C(=O)N1Cc1ccc(-c2ccccc2-c2nnn[nH]2)cc1 [IRBESARTAN] | Not Active | Not Active | Not Active | Not Active | Not Active | Not Active | Not Active | Not Active |  | 
CN1CCC(=C2c3ccccc3CC(=O)c3sccc32)CC1 [KETOTIFEN] | Not Active | Not Active | Not Active | Not Active | Not Active | Not Active | Not Active | Not Active |  | 
N[C@@H](Cn1ccc(=O)c(O)c1)C(=O)O [L-MIMOSINE] | Not Active | Not Active | Not Active | Not Active | Not Active | Not Active | Not Active | Not Active |  | 
C[N+](C)(C)C[C@H](O)CC(=O)[O-] [LEVOCARNITINE] | Not Active | Not Active | Not Active | Not Active | Not Active | Not Active | Not Active | Not Active |  | 
